Test results: patent US8193175B2, “Ruthenium complexes for treating cancers” (Universite de Strasbourg, priority 2004, dated 2012)

What was measured:
TK6 and NH32 lines = experiment: Compared proliferation of lines TK6 and NH32; format: cell-based, human
Method: The influence of the p53 protein upon the effects induced by the products was determined by using the human lymphoblastoid line TK6 (p53 wild-type) and its NH32 variant of which the p53 gene was totally inactivated by double homologous recombination (Chuang et al, 1999). The TK6 cells originate from the American Tissue Culture Collection (ATGC, Manassas, Va., USA). The NH32 cells were supplied by H. L. Liber (Chuang et al, 1999).
(§1) All of these cells are cultivated in RPMI 1640-Glutamax, supplemented by 10% calf foetal serum heat inactivated at 56° C. for 30 minutes, 1 mM sodium pyruvate, 1 mM non-essential amino acids and 50 μg/mL gentamycine (Life Technologies, Cergy Pontoise, France). The cultures are kept in an incubator at 37° C. with a moisture saturated atmosphere, with 5% CO2.
This test uses the UptiBlue reagent (Interchim, Montluçon, France), metabolised by the living cells. The cells are incubated on plates with 96 wells with 10^4 cells/well (200 μL) with the product and cultivated for 72 hours. Then, 20 μL UptiBlue are added to each well. After 3 hours incubation, the fluorescence of the samples contained in the plates is measured at 590 nm (excitation at 560 nm), using a Fluorolite 1000 microplate reader (Dynex technologies, Issy-Les-Moulineaux, France). […]

HL-60 = experiment: Proliferation test (UptiBlue) on HL-60; format: cell-based, human
Method: The products are tested on different cell lines. The cells used are RDM4 from a murine T lymphoma and a MOLT-4 line originating from an acute lymphoblastic leukemia. These cancer lines both express the p53 protein, unlike the HL-60 cells from a human promyelocytary leukemia where, following deletion of its gene, p53 is absent.
as §1
This test uses the UptiBlue reagent (Interchim, Montluçon, France), metabolised by the living cells. The cells are incubated on plates with 96 wells with 10^4 cells/well (200 μL) with the product and cultivated for 72 hours. Then, 20 μL UptiBlue are added to each well. After 3 hours incubation, the fluorescence of the samples contained in the plates is measured at 590 nm (excitation at 560 nm), using a Fluorolite 1000 microplate reader (Dynex technologies, Issy-Les-Moulineaux, France).
This sensitivity is reversed with the Ru complex. […] These latter, which have a normal p53 gene, are less sensitive to the Ru complex. […]

RDM4 cells = experiment: Chemo-radiotherapeutic association on RDM4 cells (cell counting, propidium iodure apoptosis); format: cell-based, mouse; conditions: for proliferation of non-irradiated RDM4 cells (cell counting): cisplatinum 0.7 μM, ruthenium derivative 10 μM, no irradiation; for proliferation of RDM4 cells, compound plus ionising radiation: 4 Gy rapid neutrons plus compound 11 (10 μM)
Method: Cells of this same line are treated with concentrations of 0.7 μM cisplatinum and 15 μM complex 11. 24 hours after the start of the treatment, the cells are irradiated at 4 Gy with rapid neutrons. The effects of the chemo-radiotherapeutic association are then determined by simple cell counting, measuring the concentration of cells in the medium during treatment 24 hrs, 72 hrs and 168 hrs after irradiation.
Evaluation of the effects of a combined “ionising radiation+RDC-11” treatment upon proliferation and survival of the RDM4 murine cells. These cells originate from an AKR mouse lymphoma. The different tests were carried out in vitro, and five independent experiments were carried out.
The radiations used were rapid neutrons originating from the collision of 65 MeV protons on a Beryllium target (produced at the Cyclotron, Louvain la Neuve (LLN) in Belgium). The results of just one of these experiments which is representative of a set of three experiments carried out with this type of radiation are shown.
The RDM4 cells are adjusted to 50,000 cells/ml, in RPMI 1640 culture medium to which 10% foetal calf serum is added. 4 25 cm2 culture flasks are filled with cell suspension, at the rate of 10 ml/flask, i.e. 500,000 cells/flask.
Four flasks are prepared thus, each corresponding to a different experimental group: • Group 1: non-irradiated, untreated cells (Et/NI in FIG. 9) • Group 2: non-irradiated cells, treated with RDC-11 (RDC-11/NI in FIG. 9) • Group 3: irradiated, non-treated cells (Et/4 Gy in FIG. 9) • Group 4: irradiated cells, treated with RDC-11 (RDC-11/4 Gy in FIG. 9)
RDC-11, prepared from an ethanolic solution, is added to the cells (flask 2 and 4) 6 hours before irradiation. An identical volume of ethanol (Et, 66 μl) is added to flasks 1 and 3. The final concentration of RDC-11 is 10 μM, and the medium is not replaced over the 9 days of the experiment.
Flasks 3 and 4 are irradiated with 4 Gy, at ambient temperature, then returned to culture at 37° C.
On the days following irradiation, aliquots of cell suspensions are regularly taken. The number of cells is determined using a Coulter Counter. Other cells are fixed in ethanol, then marked with propidium iodure, in order to determined the percentage apoptosis.

RDM4 = experiment: Apoptosis by marking with Annexin-V on RDM4; format: cell-based, mouse
Method: Cell death is measured by a first specific marking of the apoptosis. The externalisation of the anionic phospholipids, normally located on the inner layer of the plasmic membrane, is one of the precocious markers of apoptosis (Martin et al, 1996). Annexin-V is a protein which fixes specifically onto the phosphatidylserines in the presence of calcium. When Annexin-V is coupled to a fluorochrome, it makes it possible to quantify the apoptotic cells by flux cytometry.
The control cells are treated with the equivalent volume of solvent (ethanol). […] After 72 hrs, the apoptosis rate is still as low as that of the control cells. On the other hand, with treatment at 45 μM, this rate already reaches 70% at 24 hrs and exceeds 99% after 48 hrs—a sign of significant apoptosis induction.

Row | Compound | proliferation of TK6 (p53 wild-type) compared with NH32 (p53-/-) (TK6 and NH32 lines) | IC50 (HL-60; p53-deficient line) | proliferation of non-irradiated RDM4 cells (cell counting) (RDM4 cells) | apoptosis rate (Annexin-V) (RDM4; 15 μM, up to 72 hrs) | apoptosis rate (Annexin-V) (RDM4; 45 μM, 24 hrs) | growth inhibition, HL-60 compared with MOLT-4 (HL-60; p53-deficient HL-60 vs MOLT-4 with normal p53) | proliferation of RDM4 cells, compound plus ionising radiation (RDM4 cells) | proliferation of RDM4 cells, compound plus ionising radiation (RDM4 cells; listed as RDC-11) | effect of the combination with irradiation (RDM4 cells; RDC-11 10 μM plus 4 Gy) | percentage of cells in apoptosis (propidium iodure), co-treatment (RDM4 cells; RDC-11 10 μM plus 4 Gy, three days after start)
1 | N.N.[Cl][Pt][Cl] [Cisplatinum, reference compound] | more significant effect upon the p53+/+ cells than upon the p53-deficient cells | 1000 nM | inhibits proliferation more effectively than the ruthenium derivative |  |  |  |  |  |  | 
2 | [Ru(C6H4-2-C5H4N)(phen)(NCMe)2]PF6 [Compound 11] | can be superposed |  | negligible | does not shown any effect | 70% | more significant for HL-60s than for MOLT-4s | cell proliferation practically zero | cell growth is significantly slowed down | supra-additive effect | greater than the sum of treatments taken separately
